# Reference: article PMC5218472 (PLoS Biology, 2017)
# Where a chain is given by its changes, count along the chain named. Residues, ends and D or L forms follow the SMILES beside them. No end group written: not given here. *: point of attachment. NH(β-GlcNAc) = CC(=O)N[C@@H]1[C@@H](O)[C@H](O)[C@@H](CO)O[C@H]1N*; αGalNAc = CC(=O)N[C@@H]1[C@@H](O)[C@@H](O)[C@@H](CO)O[C@@H]1*
# B1: IL-6R / sIL-6R (interleukin-6 receptor): peptide 9(QD), biantennary N-glycan plus GalNAc (protein)
# parent chain: MLAVGCALLAALLAAPGAALAPRRCPAQEVARGVLTSLPGDSVTLTCPGVEPEDNATVHWVLRKPAAGSHPSRWAGMGRRLLLRSVQLHDSGNYSCYRAGRPAGTVHLLVDVPPEEPQLSCFRKSPLSNVVCEWGPRSTPSLTTKAVLLVRKFQNSPAEDFQEPCQYSQESQKFSCQLAVPEGDSSFYIVSMCVASSVGSKFSKTQTFQGCGILQPDPPANITVTAVARNPRWLSVTWQDPHSWNSSFYRLRFELRYRAERSKTFTTWMVKDLQHHCVIHDAWSGLRHVVQLRAQEEFGQGEWSEWSPEAMGTPWTESRSPPAENEVSTPMQALTTNKDDDNILFRDSANATSLPVQDSSSVPLPTFLVAGGSLAFGTLLCIAIVLRFKKTWKLRALKEGKTSMHPPYSLGQLVPERPRPTPVLVPLISPPVSPSSLGSDNTSSHNRPDARDPRSPYDISNTDYFFPR
# B2: IL-6R / sIL-6R (interleukin-6 receptor): peptide 4(QA), GlcNAc at Asn-350 (protein)
# parent chain: B1 parent chain with D358A
# B3: IL-6R / sIL-6R (interleukin-6 receptor): peptide 8(QA), GalNAc at Thr-352 (protein)
# parent chain: B1 parent chain with D358A
# B4: IL-6R / sIL-6R (interleukin-6 receptor): peptide 6(QA), biantennary N-glycan at Asn-350 (protein)
# parent chain: B1 parent chain with D358A
# B5: IL-6R / sIL-6R (interleukin-6 receptor): peptide 10(QA), biantennary N-glycan plus GalNAc (protein)
# parent chain: B1 parent chain with D358A
# How the values were obtained:
# [1] = test system: T1, ADAM17; assay: In vitro cleavage assay of IL-6R (glyco)peptides with recombinant ADAM17; conditions: human, isolated enzyme, pH 9
# T1 construct: catalytic domain (aa Pro-18 to Val-477) of ADAM17; purchased Enzo Life Sciences GmbH (Lörrach, Germany)
# Method: Fig 7 The N- and O-glycosylated sequon adjacent to the cleavage site is of minor importance for IL-6R cleavage. (A) Amino-acid sequence of the two unglycosylated peptides 1(QD) and 2(QA). Peptides were incubated either with or without recombinant ADAM17 for 16 h at 37°C, and the amount of cleaved peptide was analyzed by reversed-phase (RP) chromatography. (B) Amino-acid sequence of the two glycopeptides 3(QD) and 4(QA), which have a GlcNAc attached to the amino-acid residue corresponding to Asn-350 of the IL-6R. Cleavage was determined as described in panel (A). (C) Amino-acid sequence of the two glycopeptides 5(QD) and 6(QA), which have a biantennary N-glycan attached to the amino-acid residue corresponding to Asn-350 of the IL-6R. Cleavage was determined as described in panel (A). (D) Amino-acid sequence of the two glycopeptides 7(QD) and 8(QA), which have a GalNAc attached to the amino-acid residue corresponding toThr-352 of the IL-6R. Cleavage was determined as described in panel (A). (E) Amino-acid sequence of the two glycopeptides 9(QD) and 10(QA), which have a biantennary N-glycan attached to the amino-acid residue corresponding to Asn-350 and a GalNAc attached to the amino-acid residue corresponding toThr-352 of the IL-6R. Cleavage was determined as described in panel (A). All data shown are the mean ± SD from three independent experiments (*p < 0.05, **p < 0.01, ***p < 0.001, compared to the untreated peptide; ^§p < 0.05, compared to the cleaved nonglycosylated peptide).
# Two 1.5 ml reaction tubes were filled with 50 μl peptide (50 μM) solved in 25 mM Hepes (pH 9.0), and 0.5 μl of the recombinant catalytic domain of ADAM17 was added to one of the reaction tubes, whereas the other sample remained untreated. All samples were incubated for 16 h at 37°C. Afterwards, 1,150 μl 0.1% TFA was added to each sample, and the peptides were separated on a reverse phase chromatography column (Multo High Bio-200-C18) from Chromatographie Service (Langerwehe, Germany) using a linear gradient elution with a binary solvent system and a flow rate of 1 ml/min. Solvent A consisted of 0.1% TFA, and solvent B consisted of 100% ACN. After peak integration, peak areas for cleaved and noncleaved peptides were determined.
# [2] = in vitro peptide cleavage, 16 h, RP chromatography; conditions: glycan gained
# [3] = control: unglycosylated synthetic peptide 2(QA), Asp358Ala
Molecule,"remaining at 16 h, 50 μM [1]","other: proteolytic processing, other: percent peptide intact [2, 3]",further results
CC[C@H](C)[C@H](NC(=O)[C@@H](N)CC(N)=O)C(=O)N[C@@H](CC(C)C)C(=O)N[C@@H](Cc1ccccc1)C(=O)N[C@@H](CCCNC(=N)N)C(=O)N[C@@H](CC(=O)O)C(=O)N[C@@H](CO)C(=O)N[C@@H](C)C(=O)N[C@@H](CC(=O)N[C@@H]1O[C@H](CO)[C@@H](O)[C@H](O)[C@H]1NC(C)=O)C(=O)N[C@@H](C)C(=O)N[C@H](C(=O)N[C@@H](CO)C(=O)N[C@@H](CC(C)C)C(=O)N1CCC[C@H]1C(=O)N[C@H](C(=O)N[C@@H](CCC(N)=O)C(=O)N[C@@H](CC(=O)O)C(=O)N[C@@H](CO)C(=O)N[C@@H](CO)C(=O)N[C@@H](CO)C(=O)N[C@H](C(=O)N1CCC[C@H]1C(=O)N[C@@H](CC(C)C)C(=O)N1CCC[C@H]1C(=O)O)C(C)C)C(C)C)[C@@H](C)O [3(QD)] (H-NILFRDSAD(NH(β-GlcNAc))ATSLPVQDSSSVPLP-OH),91.4%,,
CC[C@H](C)[C@H](NC(=O)[C@@H](N)CC(N)=O)C(=O)N[C@@H](CC(C)C)C(=O)N[C@@H](Cc1ccccc1)C(=O)N[C@@H](CCCNC(=N)N)C(=O)N[C@@H](CC(=O)O)C(=O)N[C@@H](CO)C(=O)N[C@@H](C)C(=O)N[C@@H](CC(=O)N[C@@H]1O[C@H](CO)[C@@H](O)[C@H](O)[C@H]1NC(C)=O)C(=O)N[C@@H](C)C(=O)N[C@H](C(=O)N[C@@H](CO)C(=O)N[C@@H](CC(C)C)C(=O)N1CCC[C@H]1C(=O)N[C@H](C(=O)N[C@@H](CCC(N)=O)C(=O)N[C@@H](C)C(=O)N[C@@H](CO)C(=O)N[C@@H](CO)C(=O)N[C@@H](CO)C(=O)N[C@H](C(=O)N1CCC[C@H]1C(=O)N[C@@H](CC(C)C)C(=O)N1CCC[C@H]1C(=O)O)C(C)C)C(C)C)[C@@H](C)O [4(QA)] (H-NILFRDSAD(NH(β-GlcNAc))ATSLPVQASSSVPLP-OH),0.4%,,
CC[C@H](C)[C@H](NC(=O)[C@@H](N)CC(N)=O)C(=O)N[C@@H](CC(C)C)C(=O)N[C@@H](Cc1ccccc1)C(=O)N[C@@H](CCCNC(=N)N)C(=O)N[C@@H](CC(=O)O)C(=O)N[C@@H](CO)C(=O)N[C@@H](C)C(=O)N[C@@H](CC(N)=O)C(=O)N[C@@H](C)C(=O)N[C@H](C(=O)N[C@@H](CO)C(=O)N[C@@H](CC(C)C)C(=O)N1CCC[C@H]1C(=O)N[C@H](C(=O)N[C@@H](CCC(N)=O)C(=O)N[C@@H](CC(=O)O)C(=O)N[C@@H](CO)C(=O)N[C@@H](CO)C(=O)N[C@@H](CO)C(=O)N[C@H](C(=O)N1CCC[C@H]1C(=O)N[C@@H](CC(C)C)C(=O)N1CCC[C@H]1C(=O)O)C(C)C)C(C)C)[C@@H](C)O[C@H]1O[C@H](CO)[C@H](O)[C@H](O)[C@H]1NC(C)=O [7(QD)] (H-NILFRDSANAT(αGalNAc)SLPVQDSSSVPLP-OH),91%,,
CC[C@H](C)[C@H](NC(=O)[C@@H](N)CC(N)=O)C(=O)N[C@@H](CC(C)C)C(=O)N[C@@H](Cc1ccccc1)C(=O)N[C@@H](CCCNC(=N)N)C(=O)N[C@@H](CC(=O)O)C(=O)N[C@@H](CO)C(=O)N[C@@H](C)C(=O)N[C@@H](CC(N)=O)C(=O)N[C@@H](C)C(=O)N[C@H](C(=O)N[C@@H](CO)C(=O)N[C@@H](CC(C)C)C(=O)N1CCC[C@H]1C(=O)N[C@H](C(=O)N[C@@H](CCC(N)=O)C(=O)N[C@@H](C)C(=O)N[C@@H](CO)C(=O)N[C@@H](CO)C(=O)N[C@@H](CO)C(=O)N[C@H](C(=O)N1CCC[C@H]1C(=O)N[C@@H](CC(C)C)C(=O)N1CCC[C@H]1C(=O)O)C(C)C)C(C)C)[C@@H](C)O[C@H]1O[C@H](CO)[C@H](O)[C@H](O)[C@H]1NC(C)=O [8(QA)] (H-NILFRDSANAT(αGalNAc)SLPVQASSSVPLP-OH),10.8%,,
NILFRDSANATSLPVQASSSVPLP [2(QA)],0.93%,,
NILFRDSANATSLPVQDSSSVPLP [1(QD)],86%,,
B1,,,"other: proteolytic processing, other: percent peptide intact ([2]; control: unglycosylated synthetic peptide 1(QD)): abolishes"
B2,,"no change, 0.4% ± 0.7% vs 1.0% ± 1.0%",
B3,,"decreases, 10.8% ± 5.4% vs 1.0% ± 1.0%",
B4,,no change,
B5,,"decreases, 14.7% ± 6.3% vs 1.0% ± 1.0%",
